Molecules are shown by their SMILES.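 1) Cells in 96-well plates. 2) Compound, 48 h, 5 concentrations. 3) Linear interpolation between surrounding doses. 4) Unreached endpoint = highest concentration. GI50 = concentration required for 50% inhibition of growth. Definition used: TGI = concentration required for complete inhibition of growth.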

Among the test systems are HL-60(TB) leukemia; MALME-3M melanoma; NCI-H460 lung; NCI-H522 lung; SF-268 CNS; SK-MEL-2 melanoma; SK-MEL-5 melanoma; SNB-19 CNS; SW-620 colon; U251 CNS.
Assay in all cases: inhibition of tumour cell growth, NCI panel, 48 h

With `O=C1CSC(=S)N1`, the TGI with HL-60(TB) leukemia, with MALME-3M melanoma, in the test on NCI-H460 lung, in the test with NCI-H522 lung, in the test with SF-268 CNS and in the test with SK-MEL-2 melanoma was greater than 100 µM each time. Besides, the TGI with SK-MEL-5 melanoma, in the test with SNB-19 CNS, in the test on SW-620 colon and with U251 CNS was greater than 100 µM throughout.
Consider `Cc1ccc2c(c1)C(=O)N(N(C)C)CC(=O)N2`, for which the TGI in the test with HL-60(TB) leukemia, in the test on MALME-3M melanoma, with NCI-H460 lung, in the test with NCI-H522 lung, in the test with SF-268 CNS and in the test with SK-MEL-2 melanoma was greater than 100 µM in each case. In addition, the TGI in the test with SK-MEL-5 melanoma, in the test on SNB-19 CNS, in the test with SW-620 colon and in the test on U251 CNS was greater than 100 µM throughout.
As for `Fc1ccc(C2CC(c3cccc(Nc4ccncc4)c3)=NN2c2ccc(Cl)cc2)cc1` (stereo unspecified), the GI50 in the test on HL-60(TB) leukemia is 1.95 µM; in the test on MALME-3M melanoma it was 1.59 µM; in the test on NCI-H460 lung it was 1.79 µM; in the test on NCI-H522 lung it was 1.78 µM; with SF-268 CNS, 1.75 µM; with SK-MEL-2 melanoma, 1.89 µM. In addition, the GI50 is 1.76 µM in the test with SK-MEL-5 melanoma, 1.65 µM in the test on SNB-19 CNS and 1.64 µM in the test on SW-620 colon. The TGI amounted to 4.22 µM with HL-60(TB) leukemia; 3.1 µM in the test on MALME-3M melanoma; 3.35 µM in the test on NCI-H460 lung; 3.68 µM in the test with NCI-H522 lung; 3.45 µM in the test with SF-268 CNS; 3.73 µM in the test with SK-MEL-2 melanoma. The TGI in the test with SK-MEL-5 melanoma stood at 3.16 µM; with SNB-19 CNS it was 3.07 µM; in the test on SW-620 colon, 3.09 µM.
With `CC(=O)OCC1=C(C(=O)O)N2C(=O)C(NC(=O)CSc3ccncc3)C2SC1` (stereo unspecified), the TGI in the test on HL-60(TB) leukemia, with MALME-3M melanoma, in the test with NCI-H460 lung, in the test with NCI-H522 lung, with SF-268 CNS and in the test with SK-MEL-2 melanoma was greater than 100 µM in each case. The TGI with SK-MEL-5 melanoma, with SNB-19 CNS, with SW-620 colon and with U251 CNS was greater than 100 µM in each case.
Turning to `CC1CCC2(O)C3(C)CC4(O)OC2(C1O)C1(O)C3(O)C(OC(=O)c2ccc[nH]2)C(O)(C(C)C)C41C` (stereo unspecified), the TGI is greater than 100 µM in the test on HL-60(TB) leukemia; greater than 100 µM in the test with MALME-3M melanoma; greater than 100 µM with NCI-H460 lung; greater than 100 µM with NCI-H522 lung; greater than 31.6 µM in the test with SF-268 CNS; greater than 100 µM with SK-MEL-2 melanoma. In addition, the TGI in the test on SK-MEL-5 melanoma, with SNB-19 CNS, in the test on SW-620 colon and with U251 CNS was greater than 100 µM each time.
Turning to `O=C1Nc2ccccc2C1=Nc1cccc2ncccc12`, the TGI in the test with MALME-3M melanoma, in the test with NCI-H460 lung, in the test with NCI-H522 lung, in the test with SF-268 CNS, with SK-MEL-2 melanoma and in the test with SK-MEL-5 melanoma was greater than 100 µM throughout. For the same compound, the TGI with SNB-19 CNS, with SW-620 colon and in the test on U251 CNS was greater than 100 µM each time.
In the case of `CCOC(=O)NC(Nc1ncccn1)(C(=O)OCC)C(F)(F)F` (stereo unspecified), the TGI in the test with HL-60(TB) leukemia, in the test on NCI-H460 lung, in the test on NCI-H522 lung, with SF-268 CNS, with SK-MEL-2 melanoma and in the test on SK-MEL-5 melanoma was greater than 100 µM throughout. The TGI in the test on SNB-19 CNS, in the test with SW-620 colon and in the test with U251 CNS was greater than 100 µM throughout.
Take `CC(C)(C)[Si](C)(C)OCC1OC(n2cnc3c(N)ncnc32)CC1O` (stereo unspecified): the TGI in the test on HL-60(TB) leukemia, in the test on MALME-3M melanoma, in the test with NCI-H460 lung, with SK-MEL-2 melanoma, with SK-MEL-5 melanoma and in the test on SNB-19 CNS was greater than 100 µM throughout. In addition, the TGI with SW-620 colon and with U251 CNS was greater than 100 µM each time.
For the compound `c1coc(CNc2ncnc3[nH]ncc23)c1`, the TGI in the test with HL-60(TB) leukemia, with MALME-3M melanoma, in the test with NCI-H460 lung, in the test on NCI-H522 lung, in the test on SF-268 CNS and in the test on SK-MEL-2 melanoma was greater than 100 µM throughout. The TGI in the test with SK-MEL-5 melanoma, in the test on SNB-19 CNS, in the test with SW-620 colon and in the test on U251 CNS was greater than 100 µM throughout.
With `N#CN=[N+]([O-])c1ccc(C(=O)O)cc1`, the TGI is greater than 100 µM in the test with NCI-H460 lung; 40.7 µM in the test on NCI-H522 lung; 35.5 µM in the test on SF-268 CNS; 33.6 µM in the test on SK-MEL-2 melanoma; 29.8 µM in the test with SNB-19 CNS; 36.6 µM in the test on SW-620 colon. The TGI in the test with U251 CNS was determined as 33 µM.
With `Cc1cc(C)n(-c2nsc3ccccc23)n1`, the TGI in the test with HL-60(TB) leukemia, in the test with NCI-H460 lung, in the test with SF-268 CNS, with SK-MEL-2 melanoma, in the test with SK-MEL-5 melanoma and in the test on SNB-19 CNS was greater than 100 µM each time. Moreover, the TGI in the test with SW-620 colon and in the test on U251 CNS was greater than 100 µM throughout.
`C/C(N=NS(=O)(=O)c1ccccc1)=C1\C=CC=CN1O`: the TGI in the test on HL-60(TB) leukemia, in the test on NCI-H460 lung, in the test on NCI-H522 lung, with SF-268 CNS, in the test with SK-MEL-5 melanoma and in the test with SNB-19 CNS was greater than 100 µM each time. Besides, the TGI with SW-620 colon and with U251 CNS was greater than 100 µM in each case.
As to `CSc1nc(NC2OCC(O)C(O)C2O)c(N)c(=O)[nH]1` (stereo unspecified), the TGI in the test with HL-60(TB) leukemia, with MALME-3M melanoma, in the test on NCI-H460 lung, in the test on NCI-H522 lung, in the test on SF-268 CNS and in the test with SK-MEL-2 melanoma was greater than 100 µM each time. Besides, the TGI with SK-MEL-5 melanoma, in the test on SNB-19 CNS, in the test on SW-620 colon and with U251 CNS was greater than 100 µM each time.
Take `NCCCOc1ccc([N+](=O)[O-])cc1Cl`: the TGI was greater than 100 µM in the test with HL-60(TB) leukemia; greater than 100 µM in the test on MALME-3M melanoma; greater than 100 µM in the test with NCI-H460 lung; 18.2 µM in the test on NCI-H522 lung; greater than 100 µM in the test on SF-268 CNS; greater than 100 µM in the test with SK-MEL-2 melanoma. Also, the TGI in the test with SK-MEL-5 melanoma, with SNB-19 CNS, in the test with SW-620 colon and in the test on U251 CNS was greater than 100 µM throughout.
Take `O=C1NC2=C(CCCC/C2=N\O)C12CCCCC2`: the TGI in the test with HL-60(TB) leukemia, in the test with MALME-3M melanoma, in the test on NCI-H460 lung, with SF-268 CNS, in the test with SNB-19 CNS and in the test with SW-620 colon was greater than 100 µM throughout. The compound further yielded a TGI with U251 CNS greater than 100 µM.
On to `Brc1ccc(C2CC(c3cccc4ccccc34)=Nc3ccccc3S2)cc1` (stereo unspecified), for which the TGI in the test with HL-60(TB) leukemia, in the test with NCI-H460 lung, in the test on NCI-H522 lung, in the test on SF-268 CNS, in the test with SK-MEL-2 melanoma and with SK-MEL-5 melanoma was greater than 100 µM in each case. Further, the TGI was greater than 100 µM in the test on SNB-19 CNS, 34 µM in the test on SW-620 colon and greater than 100 µM in the test on U251 CNS.
As to `OCCOCCN1CCN(CCCN2c3ccccc3Sc3ccc(C(F)(F)F)cc32)CC1`, the TGI worked out at 22.7 µM in the test on NCI-H460 lung; 28.2 µM in the test on NCI-H522 lung; 33.1 µM in the test on SF-268 CNS; 34.7 µM with SK-MEL-2 melanoma; 13.8 µM in the test on SK-MEL-5 melanoma; 27.8 µM with SNB-19 CNS. In addition, the values for the TGI with SW-620 colon and with U251 CNS were 29.6 µM and 24.7 µM, respectively.
For the compound `CCN(CC)CCNc1ccc2nnn3c4ccc(C)cc4c(=O)c1c23`, the TGI with HL-60(TB) leukemia was 16.8 µM; with MALME-3M melanoma, 25.7 µM; with NCI-H460 lung, 13.9 µM; with NCI-H522 lung, 20.5 µM; in the test with SF-268 CNS, 22.3 µM; in the test with SK-MEL-2 melanoma, 27.1 µM. In addition, the TGI in the test on SK-MEL-5 melanoma came out at 22.5 µM; in the test on SNB-19 CNS, 27.4 µM; in the test on SW-620 colon, 17.2 µM; in the test on U251 CNS, 24.7 µM.
Consider `COc1ccc2nc3cc(Cl)ccc3c(NCCNC(=O)Cn3c(=O)n(C)c(=O)c4c3nc3c(c(=O)n(C)c(=O)n3C)[n+]4[O-])c2c1`, for which the TGI was greater than 100 µM in the test with HL-60(TB) leukemia; greater than 100 µM with MALME-3M melanoma; greater than 100 µM in the test on NCI-H460 lung; greater than 74.6 µM in the test on NCI-H522 lung; 60.8 µM in the test on SF-268 CNS; greater than 100 µM with SK-MEL-2 melanoma. The TGI with SK-MEL-5 melanoma is greater than 100 µM; in the test on SNB-19 CNS, greater than 77.9 µM; in the test on SW-620 colon it was greater than 71.7 µM; in the test on U251 CNS, 58.9 µM.

(Values after PubChem BioAssay (NCI).)
